Assay results as given in ChEMBL document CHEMBL1135877, “Neurotrophic activity of honokiol on the cultures of fetal rat cortical neurons” (2002).

Legend:
Format in all cases: functional
[1] = species: Rattus norvegicus; assay: Compound was tested at 0.01 uM concentration for neurotrophic activity on cultures of E 18 SD rat cortical neurons
[2] = species: Rattus norvegicus; assay: Compound was tested at 0.1 uM concentration for neurotrophic activity on cultures of E 18 SD rat cortical neurons
[3] = species: Rattus norvegicus; assay: Compound was tested at 1 uM concentration for neurotrophic activity on cultures of E 18 SD rat cortical neurons
[4] = species: Rattus norvegicus; assay: Compound was tested at 10 uM concentration for neurotrophic activity on cultures of E 18 SD rat cortical neurons
[5] = species: Rattus norvegicus; assay: Compound was tested at 100 uM concentration for neurotrophic activity on cultures of E 18 SD rat cortical neurons

Q: Which results are given for C=CCc1ccc(O)c(-c2ccc(O)c(CC=C)c2)c1 [HONOKIOL]?
A: Control [1]: 95.6%; Control [2]: 106%; Control [3]: 113%; Control [4]: 143%; Control [5]: 29.7%
